Assay results reported in ChEMBL document CHEMBL3046257, “Response of sweet maize (Zea mays L.) hybrids to halosulfuron” (Crop Prot, 2008).

How the values were obtained:
Type in all cases: organism-based
Zea mays [1] = test: Toxicity in Zea mays Empire (maize) assessed as visible injury at 25 g ai/ha applied shortly post-emergence at three to five-leaf stage using backpack sprayer measured after 28 days; conditions: in vivo, other, 672 h
Zea mays [2] = test: Toxicity in Zea mays Empire (maize) assessed as visible injury at 50 g ai/ha applied shortly post-emergence at three to five-leaf stage using backpack sprayer measured after 14 days; conditions: in vivo, other, 336 h
Zea mays [3] = test: Toxicity in Zea mays GH2298 (maize) assessed as visible injury at 25 g ai/ha applied shortly post-emergence at three to five-leaf stage using backpack sprayer measured after 14 days; conditions: in vivo, other, 336 h
Zea mays [4] = test: Toxicity in Zea mays GH2041 (maize) assessed as visible injury at 50 g ai/ha applied shortly post-emergence at three to five-leaf stage using backpack sprayer measured after 28 days; conditions: in vivo, other, 672 h
Zea mays [5] = test: Toxicity in Zea mays GH2041 (maize) assessed as visible injury at 25 g ai/ha applied shortly post-emergence at three to five-leaf stage using backpack sprayer measured after 28 days; conditions: in vivo, other, 672 h
Zea mays [6] = test: Toxicity in Zea mays GH2041 (maize) assessed as visible injury at 25 g ai/ha applied shortly post-emergence at three to five-leaf stage using backpack sprayer measured after 14 days; conditions: in vivo, other, 336 h
Zea mays [7] = test: Toxicity in Zea mays GG446 (maize) assessed as visible injury at 50 g ai/ha applied shortly post-emergence at three to five-leaf stage using backpack sprayer measured after 7 days; conditions: in vivo, other, 168 h
Zea mays [8] = test: Toxicity in Zea mays GH2041 (maize) assessed as visible injury at 50 g ai/ha applied shortly post-emergence at three to five-leaf stage using backpack sprayer measured after 7 days; conditions: in vivo, other, 168 h
Zea mays [9] = test: Toxicity in Zea mays GH2547 (maize) assessed as visible injury at 50 g ai/ha applied shortly post-emergence at three to five-leaf stage using backpack sprayer measured after 28 days; conditions: in vivo, other, 672 h
Zea mays [10] = test: Toxicity in Zea mays GH2547 (maize) assessed as visible injury at 25 g ai/ha applied shortly post-emergence at three to five-leaf stage using backpack sprayer measured after 28 days; conditions: in vivo, other, 672 h
Zea mays [11] = test: Toxicity in Zea mays GH2041 (maize) assessed as plant height at 25 g ai/ha applied shortly post-emergence at three to five-leaf stage using backpack sprayer measured after 21 days (Rvb =80 cm); conditions: in vivo, other, 504 h
Zea mays [12] = test: Toxicity in Zea mays GG214 (maize) assessed as plant height at 50 g ai/ha applied shortly post-emergence at three to five-leaf stage using backpack sprayer measured after 21 days (Rvb =81 cm); conditions: in vivo, other, 504 h
Zea mays [13] = test: Toxicity in Zea mays GG214 (maize) assessed as visible injury at 25 g ai/ha applied shortly post-emergence at three to five-leaf stage using backpack sprayer measured after 28 days; conditions: in vivo, other, 672 h
Zea mays [14] = test: Toxicity in Zea mays GSS9299 (maize) assessed as marketable yield at 25 g ai/ha applied shortly post-emergence at three to five-leaf stage using backpack sprayer (reference value: 13.2 T/ha ); conditions: in vivo, other
Zea mays [15] = test: Toxicity in Zea mays Empire (maize) assessed as reduction in marketable yield at 50 g ai/ha applied shortly post-emergence at three to five-leaf stage using backpack sprayer; design: scale not given: the % may be the effect or the level left; conditions: in vivo, other
Zea mays [16] = test: Toxicity in Zea mays Empire (maize) assessed as reduction in marketable yield at 25 g ai/ha applied shortly post-emergence at three to five-leaf stage using backpack sprayer; design: scale not given: the % may be the effect or the level left; conditions: in vivo, other
Zea mays [17] = test: Toxicity in Zea mays GH2684 (maize) assessed as cob size at 25 g ai/ha applied shortly post-emergence at three to five-leaf stage using backpack sprayer (reference value: 340 g); conditions: in vivo, other
Zea mays [18] = test: Toxicity in Zea mays Empire (maize) assessed as cob size at 25 g ai/ha applied shortly post-emergence at three to five-leaf stage using backpack sprayer (reference value: 304 g); conditions: in vivo, other
Zea mays [19] = test: Toxicity in Zea mays GH2298 (maize) assessed as cob size at 25 g ai/ha applied shortly post-emergence at three to five-leaf stage using backpack sprayer (reference value: 307 g); conditions: in vivo, other
Zea mays [20] = test: Toxicity in Zea mays GH2041 (maize) assessed as cob size at 50 g ai/ha applied shortly post-emergence at three to five-leaf stage using backpack sprayer (reference value: 285 g); conditions: in vivo, other
Zea mays [21] = test: Toxicity in Zea mays GH2041 (maize) assessed as cob size at 25 g ai/ha applied shortly post-emergence at three to five-leaf stage using backpack sprayer (reference value: 285 g); conditions: in vivo, other
Zea mays [22] = test: Toxicity in Zea mays GG446 (maize) assessed as plant height at 25 g ai/ha applied shortly post-emergence at three to five-leaf stage using backpack sprayer measured after 21 days (reference value: 85 cm); conditions: in vivo, other, 504 h
Zea mays [23] = test: Toxicity in Zea mays GSS9299 (maize) assessed as visible injury at 50 g ai/ha applied shortly post-emergence at three to five-leaf stage using backpack sprayer measured after 14 days; conditions: in vivo, other, 336 h
Zea mays [24] = test: Toxicity in Zea mays GSS9299 (maize) assessed as visible injury at 50 g ai/ha applied shortly post-emergence at three to five-leaf stage using backpack sprayer measured after 7 days; conditions: in vivo, other, 168 h
Zea mays [25] = test: Toxicity in Zea mays GH2684 (maize) assessed as visible injury at 25 g ai/ha applied shortly post-emergence at three to five-leaf stage using backpack sprayer measured after 28 days; conditions: in vivo, other, 672 h
Zea mays [26] = test: Toxicity in Zea mays GH2684 (maize)assessed as visible injury at 25 g ai/ha applied shortly post-emergence at three to five-leaf stage using backpack sprayer measured after 14 days; conditions: in vivo, other, 336 h
Zea mays [27] = test: Toxicity in Zea mays GH2041 (maize) assessed as marketable yield at 25 g ai/ha applied shortly post-emergence at three to five-leaf stage using backpack sprayer (reference value: 12.2 T/ha ); conditions: in vivo, other
Zea mays [28] = test: Toxicity in Zea mays GG214 (maize) assessed as cob size at 25 g ai/ha applied shortly post-emergence at three to five-leaf stage using backpack sprayer (reference value: 292 g); conditions: in vivo, other
Zea mays [29] = test: Toxicity in Zea mays GH2684 (maize) assessed as plant height at 25 g ai/ha applied shortly post-emergence at three to five-leaf stage using backpack sprayer measured after 21 days (Rvb =73 cm); conditions: in vivo, other, 504 h
Zea mays [30] = test: Toxicity in Zea mays Empire (maize) assessed as plant height at 25 g ai/ha applied shortly post-emergence at three to five-leaf stage using backpack sprayer measured after 21 days (Rvb =73 cm); conditions: in vivo, other, 504 h

COc1cc(OC)nc(NC(=O)NS(=O)(=O)c2c(C(=O)O)c(Cl)nn2C)n1 [HALOSULFURON]
Activity (Zea mays [1]): 0% | Activity (Zea mays [2]): 6% | Activity (Zea mays [3]): 2% | Activity (Zea mays [4]): 0% | Activity (Zea mays [5]): 0% | Activity (Zea mays [6]): 1% | Activity (Zea mays [7]): 0% | Activity (Zea mays [8]): 2% | Activity (Zea mays [9]): 0% | Activity (Zea mays [10]): 0% | Activity (Zea mays [11]): 76 cm | Activity (Zea mays [12]): 75 cm | Activity (Zea mays [13]): 0% | Crop_yield (Zea mays [14]): 12.3 tons/ha | Activity (Zea mays [15]): 21% | Activity (Zea mays [16]): 14% | Activity (Zea mays [17]): 316 g | Activity (Zea mays [18]): 299 g | Activity (Zea mays [19]): 315 g | Activity (Zea mays [20]): 267 g | Activity (Zea mays [21]): 273 g | Activity (Zea mays [22]): 81 cm | Activity (Zea mays [23]): 2% | Activity (Zea mays [24]): 2% | Activity (Zea mays [25]): 0% | Activity (Zea mays [26]): 3% | Crop_yield (Zea mays [27]): 11.8 tons/ha | Activity (Zea mays [28]): 293 g | Activity (Zea mays [29]): 76 cm | Activity (Zea mays [30]): 69 cm
